# Results taken from article PMC9133015 (Nature Communications, 2022).
# Several values for one entry are separate records, joined by “and”; a condition that tells them apart may be missing. Identical values can stand only once.
# Key:
# RWPE-1 cells = test: Anti-proliferation activity assay (CCK8, 72 h); type: cell-based; settings: for Relative proliferation rate (%) mean / Relative proliferation rate (%) / optical density: RWPE1; for Relative proliferation rate (%) / optical density: replicates
# 22Rv1 cells = test: Cell growth assay (5-day course); type: cell-based, human
# DU145 cells = test: Cell growth assay (5-day course); type: cell-based, human
# PC-3 cells = test: Cell growth assay (5-day course); type: cell-based, human; settings: PC-3; for Relative proliferation rate / optical density: replicates
smiles,measurement,setting,value
CCN1CCN(C(=O)c2ccc(Nc3ncc(F)c(-c4ccc5nc(N(C)C)sc5c4)n3)nc2)CC1 [YK-2-69],Relative proliferation rate (%) mean,RWPE-1 cells; 0.078 uM,1.172%
same,Relative proliferation rate (%),RWPE-1 cells; 0.078 uM,1.172% and 0.4794% and 1.866%
same,optical density,RWPE-1 cells; 0.078 uM,1.096 and 1.038 and 1.052
same,Relative proliferation rate (%) mean,RWPE-1 cells; 0.3125 uM,5.563%
same,Relative proliferation rate (%),RWPE-1 cells; 0.3125 uM,5.591% and 3.3557% and 7.743%
same,optical density,RWPE-1 cells; 0.3125 uM,1.047 and 1.008 and 0.989
same,Relative proliferation rate (%) mean,RWPE-1 cells; 1.25 uM,13.0424%
same,Relative proliferation rate (%),RWPE-1 cells; 1.25 uM,13.0748% and 7.862% and 18.1903%
same,optical density,RWPE-1 cells; 1.25 uM,0.964 and 0.961 and 0.877
same,Relative proliferation rate (%) mean,RWPE-1 cells; 5 uM,20.9606%
same,Relative proliferation rate (%),RWPE-1 cells; 5 uM,21.0099% and 16.7785% and 25.0933%
same,optical density,RWPE-1 cells; 5 uM,0.876 and 0.868 and 0.803
same,Relative proliferation rate (%) mean,RWPE-1 cells; 20 uM,54.7483%
same,Relative proliferation rate (%),RWPE-1 cells; 20 uM,54.734% and 48.1304% and 61.3806%
same,optical density,RWPE-1 cells; 20 uM,0.502 and 0.541 and 0.414
same,Relative proliferation rate (%) mean,RWPE-1 cells; 80 uM,72.5701%
same,Relative proliferation rate (%),RWPE-1 cells; 80 uM,72.5879% and 64.5254% and 80.597%
same,optical density,RWPE-1 cells; 80 uM,0.304 and 0.37 and 0.208
same,inhibitory activity against proliferation (in words),RWPE-1 cells; RWPE-1 cells,weak inhibitory activity
same,Relative proliferation rate mean,"22Rv1 cells; 22Rv1, 0.5 µM, day 1",1.179
same,Relative proliferation rate mean,"22Rv1 cells; 22Rv1, 0.5 µM, day 2",1.871
same,Relative proliferation rate mean,"22Rv1 cells; 22Rv1, 0.5 µM, day 3",2.62
same,Relative proliferation rate mean,"22Rv1 cells; 22Rv1, 0.5 µM, day 4",3.018
same,Relative proliferation rate mean,"22Rv1 cells; 22Rv1, 1 µM, day 1",1.007
same,Relative proliferation rate mean,"22Rv1 cells; 22Rv1, 1 µM, day 2",1.59
same,Relative proliferation rate mean,"22Rv1 cells; 22Rv1, 1 µM, day 3",1.919
same,Relative proliferation rate mean,"22Rv1 cells; 22Rv1, 1 µM, day 4",2.135
same,Relative proliferation rate mean,"22Rv1 cells; 22Rv1, 2 µM, day 1",0.9977
same,Relative proliferation rate mean,"22Rv1 cells; 22Rv1, 2 µM, day 2",1.414
same,Relative proliferation rate mean,"22Rv1 cells; 22Rv1, 2 µM, day 3",1.775
same,Relative proliferation rate mean,"22Rv1 cells; 22Rv1, 2 µM, day 4",1.902
same,"cell proliferation, 5-day course/colony (in words)","22Rv1 cells; 22Rv1 cells, dose-dependent",significantly inhibited the cell proliferation
same,Relative proliferation rate mean,"DU145 cells; DU145, 4 μM, day 1",1.572
same,Relative proliferation rate mean,"DU145 cells; DU145, 4 μM, day 2",2.148
same,Relative proliferation rate mean,"DU145 cells; DU145, 4 μM, day 3",4.361
same,Relative proliferation rate mean,"DU145 cells; DU145, 4 μM, day 4",5.61
same,Relative proliferation rate mean,"DU145 cells; DU145, 8 μM, day 1",1.538
same,Relative proliferation rate mean,"DU145 cells; DU145, 8 μM, day 2",2.008
same,Relative proliferation rate mean,"DU145 cells; DU145, 8 μM, day 3",3.775
same,Relative proliferation rate mean,"DU145 cells; DU145, 8 μM, day 4",4.448
same,Relative proliferation rate mean,"DU145 cells; DU145, 12 μM, day 1",1.322
same,Relative proliferation rate mean,"DU145 cells; DU145, 12 μM, day 2",1.207
same,Relative proliferation rate mean,"DU145 cells; DU145, 12 μM, day 3",1.763
same,Relative proliferation rate mean,"DU145 cells; DU145, 12 μM, day 4",2.506
same,"cell proliferation, 5-day course/colony (in words)","DU145 cells; DU145 cells, dose-dependent",significantly inhibited the cell proliferation
same,Relative proliferation rate mean,"PC-3 cells; 1 µM, day 0",1
same,Relative proliferation rate,"PC-3 cells; 1 µM, day 0",1
same,optical density,"PC-3 cells; 1 µM, day 0",0.270
same,Relative proliferation rate mean,"PC-3 cells; 1 µM, day 1",1.314
same,Relative proliferation rate,"PC-3 cells; 1 µM, day 1",1.339 and 1.335 and 1.268
same,optical density,"PC-3 cells; 1 µM, day 1",0.361 and 0.36 and 0.342
same,Relative proliferation rate mean,"PC-3 cells; 1 µM, day 2",1.774
same,Relative proliferation rate,"PC-3 cells; 1 µM, day 2",1.713 and 1.81 and 1.799
same,optical density,"PC-3 cells; 1 µM, day 2",0.462 and 0.488 and 0.485
same,Relative proliferation rate mean,"PC-3 cells; 1 µM, day 3",3.173
same,Relative proliferation rate,"PC-3 cells; 1 µM, day 3",3.23 and 3.148 and 3.141
same,optical density,"PC-3 cells; 1 µM, day 3",0.871 and 0.849 and 0.847
same,Relative proliferation rate mean,"PC-3 cells; 1 µM, day 4",6.7021
same,Relative proliferation rate,"PC-3 cells; 1 µM, day 4",6.623 and 6.6712 and 6.812
same,optical density,"PC-3 cells; 1 µM, day 4",1.786 and 1.799 and 1.837
same,Relative proliferation rate mean,"PC-3 cells; 2 µM, day 0",1
same,Relative proliferation rate,"PC-3 cells; 2 µM, day 0",1
same,optical density,"PC-3 cells; 2 µM, day 0",0.273
same,Relative proliferation rate mean,"PC-3 cells; 2 µM, day 1",1.2692
same,Relative proliferation rate,"PC-3 cells; 2 µM, day 1",1.28 and 1.295 and 1.233
same,optical density,"PC-3 cells; 2 µM, day 1",0.35 and 0.354 and 0.337
same,Relative proliferation rate mean,"PC-3 cells; 2 µM, day 2",1.697
same,Relative proliferation rate,"PC-3 cells; 2 µM, day 2",1.752 and 1.668 and 1.672
same,optical density,"PC-3 cells; 2 µM, day 2",0.479 and 0.456 and 0.457
same,Relative proliferation rate mean,"PC-3 cells; 2 µM, day 3",2.625
same,Relative proliferation rate,"PC-3 cells; 2 µM, day 3",2.612 and 2.575 and 2.688
same,optical density,"PC-3 cells; 2 µM, day 3",0.714 and 0.704 and 0.735
same,Relative proliferation rate mean,"PC-3 cells; 2 µM, day 4",5.619
same,Relative proliferation rate,"PC-3 cells; 2 µM, day 4",5.662 and 5.571 and 5.625
